{"source": "patent US20160000750A1", "about": "“COMBINATION OF EGCG OR METHYLATED EGCG AND A PDE INHIBITOR” (KYUSHU UNIVERSITY, NATIONAL UNIVERSITY CORPORATION, priority 2010, published 2016)", "key": {"[1]": {"system": "human multiple myeloma cell line, U266", "experiment": "Involvement of 67LR (anti-67LR antibody MLuc5) in cell-killing and cytostatic activity, U266", "assay_type": "cell-based", "conditions": "U266, 96-well; vardenafil 5 μM, EGCG 5 μM; 96 hours; without anti-67LR antibody (isotype control mouse IgM)", "method": "A trypan blue staining solution was prepared by suspending trypan blue in PBS at a concentration of 1% and was used in investigation of the anti-cancer activity of a combination of EGCG and vardenafil by trypan blue assay. The PBS used was prepared by dissolving 8.0 g of NaCl, 0.2 g of KCl, 1.15 g of Na2HPO4, and 0.2 g of KH2PO4 in 1 L of ultrapure water, followed by autoclave sterilization.\nA human multiple myeloma cell line, U266, and a human acute myeloid leukemia cell line, HL60, adjusted to be 5×10^4 cells/mL (U266) and 1×10^4 cells/mL (HL60), respectively, in an RPMI 1640 medium supplemented with 1% FCS were seeded in a 96-well plate (Falcon Co., Ltd.). Vardenafil was added thereto at a final concentration of 5 μM. Immediately after the addition, an anti-67LR monoclonal antibody, MLuc5 (Abcam PLC), was added thereto at a final concentration of 20 μg/mL. In the group of adding an isotype control antibody, mouse IgM (Cosmo Bio Co., Ltd., Tokyo) was added at a final concentration of 20 μg/mL. […]\nThe plate was returned to the incubator immediately after the addition of EGCG, followed by culturing for 96 hours. […] After 10 minutes, the number of the cells was counted with a hemocytometer. Unstained cells were deemed as viable cells, and the cell viability was determined as a ratio of the number of unstained cells in trypan blue staining to the total number of cells. […]"}, "[2]": {"system": "mouse plasmacytoma cell line, MPC11, transplanted to Balb/c mice", "experiment": "Tumor formation of MPC11 transplanted to Balb/c mice", "assay_type": "in vivo", "conditions": "MPC11 s.c., EGCG 15 mg/kg i.p., vardenafil 5 mg/kg i.p., once every two days from day 4", "method": "Furthermore, 5-week old female balb/c mice were preliminarily bred for one week and were then inoculated with a mouse multiple myeloma cell line, MPC11, by subcutaneous injection, in the right back, of […] of a suspension of 5×10^7 cells/mL of the cells in an RPMI medium. After 4 days from the inoculation, EGCG (15 mg/kg i.p.) and vardenafil (5 mg/kg i.p.) were administered once every two days, and the tumor volume was measured with varnier clipers. In the graph, EGCG and VDN indicate single administration of EGCG and vardenafil, respectively, and EGCG/Vardenafil indicates combination administration of EGCG and vardenafil."}}}
{"substance": "(−)-epigallocatechin-3-O-gallate [EGCG]", "values": [{"measurement": "cell viability (cell-killing activity)", "setting": "[1]", "result": "any cytotoxicity was not observed"}, {"measurement": "tumor formation (tumor volume)", "setting": "[2]", "result": "any inhibitory action on tumor formation of the mouse plasmacytoma cell line was not observed"}]}
